Data: patent US11866416B2, “Streptococcus mutans glucosyl transferase inhibitors for dental caries therapy” (UAB Research Foundation, priority 2018, dated 2024)
Read-outs that look alike come from different tables or passages of the source.

Key:
S. gordonii = assay: Growth of commensal S. gordonii; format: cell-based, Streptococcus gordonii
Protocol: (§1) Cell viability of S. mutans, S. gordonii, S. sanguinis, Aggregatibacter actinomycetemcomitans and Actinomyces. […] The number of colony-forming units (CFU) per milliliter of each sample treated with selected compounds at different concentrations was enumerated after incubation for 24 h at 37° C. and compared to the values obtained from the DMSO control group. Overnight broth cultures were transferred by 1:50 dilutions into fresh THB medium and were allowed to grow until mid-exponential phase (OD470 nm 0.6) before transfer to 96-well plates containing desired concentration of the compound. After 16 h incubation, bacterial growth was measured at OD470, and normalized to the DMSO control (100%).
(§2) Cell viability of S. mutans and commensal S. gordonii and S. sanguinis. Effects of lead small molecules on cell viability were examined. The number of colony-forming units (CFU) per milliliter for each compound at different concentrations was determined after incubation for 24 h at 37° C. and compared to the values obtained from the DMSO control group.
(§3) Cell viability of S. mutans and commensal S. gordonii and S. sanguinis. […] DMSO served as a control group and provided a relative comparison for the number of colony-forming units (CFU) per milliliter for each compound at different concentrations was determined after incubation for 24 h at 37° C. The final concentration of DMSO used in the assays was 1%.

S. sanguinis = assay: Growth of commensal S. sanguinis; format: cell-based, Streptococcus sanguinis
Protocol: as §1, §2, §3

S. mutans biofilm = S. mutans biofilm formation and inhibition assay (96-well plates, crystal violet); format: cell-based, Streptococcus mutans; conditions: for IC50: Streptococcus mutans
S. mutans Gtfs = assay: Gtf zymographic assay with SDS-PAGE; format: biochemical, Streptococcus mutans; conditions: for glucan production in zymogram assay: stilbenes, versus DMSO control
Protocol: A well-established zymographic assay was used to determine enzymatic activity of Gtfs (Mattos-Graner et al. (2004) J. Clin. Microbiol. 42, […]). In brief, overnight S. mutans UA159 cultures were diluted 1:100 in fresh 5 mL THB with 50 μL of selective compounds at a series of concentrations. Treated bacteria were grown to OD470 of 1.0, and spun down by centrifugation at 4° C., and culture supernatants were collected and filtered through a 0.22-μm-pore-size filter membrane to remove residual bacterial cells and dialyzed at 4° C. against 0.02 M sodium phosphate buffer (pH 6.8), with 10 μM phenylmethylsulfonyl fluoride (PMSF), followed by a second dialysis against 0.2 mM sodium phosphate containing 10 μM PMSF. After dialysis, 4 mL of samples were concentrated to 40 μL by 100K Amicon Ultra-4 centrifugal filter (Merck Millipore Ltd.). For electrophoresis and zymographic analysis, 10 μL of each concentrated culture supernatant was applied to 8% SDS-PAGE in duplicate. One gel was used for protein staining with Coomassie blue dye, while the other one was subjected to zymographic assay as described (Mattos-Graner et al. (2004) J. Clin. Microbiol. 42, […]). The resultant white opaque glucan bands were visualized against a black background.
Inhibition of the activity of Gtfs determined by zymographic assays. Well established zymographic assay was used to determine enzymatic activity of Gtfs. In brief, overnight S. mutans UA159 cultures were diluted 1:100 in fresh 5 mL THB. Bacteria were grown to OD470 of 1.0, and spun down by centrifugation at 4° C. and culture supernatants were collected and filtered through a 0.22-μm-pore-size filter membrane to remove residual bacterial cells and dialyzed at 4° C. against 0.02 M sodium phosphate buffer (pH 6.8), with 10 μM phenylmethylsulfonyl fluoride (PMSF), followed by a second dialysis against 0.2 mM sodium phosphate containing 10 μM PMSF. After dialysis, 4 mL of samples were concentrated to 40 μL by 100K Amicon Ultra-4 centrifugal filter (Merk Millipore Ltd.). For electrophoresis and zymographic analysis, 10 μL of each concentrated culture supernatant was applied to 8% SDS-PAGE in duplicate. One gel was used for protein staining with Coomassie blue dye, while the other one was subjected to zymographic assay. For zymogram analysis, following electrophoretic separation, gels were washed twice for 15 min each with renaturing buffer containing 2.5% Triton X-100. Gels were then incubated for 18 h at 37° C. with 0.2 M sodium phosphate buffer (pH 6.5) containing 0.2% dextran T70, 5% sucrose, and varying concentrations of the small molecule inhibitors. The reactions were stopped by washing gels with distilled water at 4° C. for 10 min, and digital images of the resultant white opaque glucan bands were visualized against a black background and captured using a digital camera.
Inhibition of the activity of Gtfs determined by zymographic assays. A well-established zymographic assay was used to determine enzymatic activity of Gtfs (Mattos-Graner, R. O., Napimoga, M. H., Fukushima, K., Duncan, M. J., Smith, D. J., J Clin Microbiol, 2004, 42, 4586). In brief, overnight S. mutans UA159 cultures were diluted 1:100 in fresh 5 mL THB with 50 μL of selective compounds at a series of concentrations. Treated bacteria were grown to OD470 of 1.0, and spun down by centrifugation at 4° C., and culture supernatants were collected and filtered through a 0.22-μm-pore-size filter membrane to remove residual bacterial cells and dialyzed at 4° C. against 0.02 M sodium phosphate buffer (pH 6.8), with 10 μM phenylmethylsulfonyl fluoride (PMSF), followed by a second dialysis against 0.2 mM sodium phosphate containing 10 μM PMSF. After dialysis, 4 mL of samples were concentrated to 40 μL by 100K Amicon Ultra-4 centrifugal filter (Merk Millipore Ltd.). For electrophoresis and zymographic analysis, 10 μL of each concentrated culture supernatant was applied to 8% SDS-PAGE in duplicate. […]

Structure (SMILES)	effect on S. gordonii growth (S. gordonii; 200 μM, OD470)	effect on S. sanguinis growth (S. sanguinis; 200 μM, OD470)	inhibition of S. mutans biofilms at 12.5 μM (S. mutans biofilm; 12.5 μM, crystal violet assay)	glucan production of the Gtfs in zymographic assay (S. mutans Gtfs; 25 μM, Gtfs from wild type S. mutans)	glucan bands in zymographic assay (S. mutans Gtfs; 50 μM, Gtfs from S. mutans UA159 supernatants)	decrease of S. gordonii cell density (S. gordonii; 400 μM)	inhibition at 52 µM (S. gordonii; Streptococcus gordonii, at 52 μM, read-out: growth of S. gordonii inhibited) [%]	decrease of S. sanguinis cell density (S. sanguinis; 400 μM)	inhibition at 52 µM (S. sanguinis; Streptococcus sanguinis, at 52 μM, read-out: growth of S. sanguinis inhibited) [%]	IC50 (S. mutans biofilm; Table 3, read-out: Biofilm Inhibition IC50) [µM]	IC50 (S. mutans biofilm; Table 4, stilbenes, NI = no inhibition, read-out: Biofilm IC50) [µM]	IC50 (S. mutans biofilm; Table 8, stilbenes, NI = no inhibition, read-out: Biofilm IC50) [µM]	IC50 (S. mutans biofilm; read-out: S. mutans biofilm IC50) [µM]	glucan production in zymogram assay (S. mutans Gtfs)
NC(=O)c1ccccc1NC(=O)c1cc2cc([N+](=O)[O-])ccc2s1 [#G43]	did not have any effect on bacterial growth	did not have any effect on bacterial growth	more than 85%	drastically reduced the glucan production	drastically reduced the glucan bands									
Oc1cc(O)cc(/C=C/c2ccc(O)c(O)c2)c1 [Piceatannol]						15-18%	< 10	15-18%	< 10	52 ± 6	52 ± 6	52 ± 6	52	greatly reduced glucan production
Oc1ccc(/C=C/c2cc(O)cc(O)c2)cc1 [Resveratrol, reference compound]														marginal inhibition
